Experimental data taken from ChEMBL document CHEMBL3596094, “Nucleoside Diphosphate Prodrugs: Nonsymmetric DiPPro-Nucleotides” (J Med Chem, 2015).

Key:
[1] = Half life in human CEM/0 cell extracts incubated at 37 degC by RP-18-HPLC method; format: ADME, CCRF-CEM
[2] = Half life in pH 7.3 PBS incubated at 37 degC by RP-18-HPLC method; format: physicochemical
[3] = test system: Human immunodeficiency virus 1; assay: Antiviral activity against HIV1 3B infected in human CEM/0 cells assessed as reduction in virus-induced giant cell formation incubated for 4 to 5 days; format: functional, organism-based; details: Human immunodeficiency virus 1, 3B, CCRF-CEM
[4] = test system: Human immunodeficiency virus 2; assay: Antiviral activity against HIV2 ROD infected in human CEM/0 cells assessed as reduction in virus-induced giant cell formation incubated for 4 to 5 days; format: functional, organism-based; details: Human immunodeficiency virus 2, ISOLATE ROD, CCRF-CEM
[5] = test system: Human immunodeficiency virus 2; assay: Antiviral activity against HIV2 ROD infected in human thymidine kinase deficient CEM/TK- cells assessed as reduction in virus-induced giant cell formation incubated for 4 to 5 days; format: functional, organism-based; details: Human immunodeficiency virus 2, ISOLATE ROD
[6] = Cytotoxicity against human CEM/0 cells assessed as reduction in cell proliferation incubated for 4 to 5 days
[7] = Half life in pH 7.3 RPMI medium incubated at 37 degC by RP-18-HPLC method; format: physicochemical
[8] = Half life in presence of pig liver esterase assessed as half life for DiPPro-NDP by RP-18-HPLC method; format: ADME
[9] = Drug metabolism in human CEM/0 cell extracts assessed as increase in NDP/NMP ratio after 10 hrs by HILIC-HPLC method; format: ADME; details: ccrf-cem
[10] = Half life in presence of pig liver esterase assessed as half life for hydrolysis R1 intermediate by RP-18-HPLC method; format: ADME; details: isolated protein
[11] = Drug metabolism in human CEM/0 cell extracts assessed as increase in NDP/NMP ratio by HILIC-HPLC method; format: ADME, cell-based; details: ccrf-cem

| SMILES | half-life [1] [h] | half-life [2] [h] | EC50 [3] [µM] | EC50 [4] [µM] | EC50 [5] [µM] | half-life [7] [h] | half-life [8] [s] | Drug metabolism [9] | t1/2 [10] [h] | CC50 ([6]; CEM/0 cells) [µM] | Drug metabolism [11] | CC50 ([6]; ccrf-cem) [µM] |
| --- | --- | --- | --- | --- | --- | --- | --- | --- | --- | --- | --- | --- |
| CCCCCCCC(=O)Oc1ccc(COP(=O)(OCc2ccc(OC(C)=O)cc2)OP(=O)(O)OC[C@@H]2C=C[C@H](n3cc(C)c(=O)[nH]c3=O)O2)cc1.N (some centres undefined) | 0.04 | 36 | 0.33 | 1.05 | 6.31 |  |  |  |  | 33 |  |  |
| CC(=O)Oc1ccc(COP(=O)(OCc2ccc(OC(=O)c3ccc(C(F)(F)F)cc3)cc2)OP(=O)(O)OC[C@@H]2C=C[C@H](n3cc(C)c(=O)[nH]c3=O)O2)cc1.N (some centres undefined) | 0.03 | 15 | 0.72 | 1.38 | > 10 |  |  |  |  | 51 |  |  |
| CCCCC(=O)Oc1ccc(COP(=O)(OCc2ccc(OC(=O)c3ccc(C(F)(F)F)cc3)cc2)OP(=O)(O)OC[C@H]2O[C@@H](n3cc(C)c(=O)[nH]c3=O)C[C@@H]2N=[N+]=[N-])cc1.N (some centres undefined) | 0.83 | 19 | 0.036 | 0.06 | > 10 |  |  |  |  | 58 |  |  |
| CCCCCCCCCCCC(=O)Oc1ccc(COP(=O)(OCc2ccc(OC(C)=O)cc2)OP(=O)(O)OC[C@H]2O[C@@H](n3cc(C)c(=O)[nH]c3=O)C[C@@H]2N=[N+]=[N-])cc1.N (some centres undefined) | 0.11 | 32 | 0.042 | 0.08 | 10 |  | 11.4 |  | 0.467 | 18 |  |  |
| CCCCCCCCCC(=O)Oc1ccc(COP(=O)(OCc2ccc(OC(C)=O)cc2)OP(=O)(O)OC[C@@H]2C=C[C@H](n3cc(C)c(=O)[nH]c3=O)O2)cc1.N (some centres undefined) | 0.04 | 40 | 0.33 | 1.36 | 2.32 |  | 8.4 |  |  | 15 |  |  |
| CCCCCCCC(=O)Oc1ccc(COP(=O)(OCc2ccc(OC(=O)CCCC)cc2)OP(=O)(O)OC[C@H]2O[C@@H](n3cc(C)c(=O)[nH]c3=O)C[C@@H]2N=[N+]=[N-])cc1.N (some centres undefined) | 0.83 | 46 | 0.036 | 0.07 | > 10 |  | 16.2 |  | 0.25 | 73 |  |  |
| CC(=O)Oc1ccc(COP(=O)(OCc2ccc(OC(=O)c3ccc(C)cc3)cc2)OP(=O)(O)OC[C@@H]2C=C[C@H](n3cc(C)c(=O)[nH]c3=O)O2)cc1.N (some centres undefined) | 0.04 | 58 | 0.29 | 1.47 | 10 |  |  |  |  | 11 |  |  |
| CCCCCCC(=O)Oc1ccc(COP(=O)(OCc2ccc(OC(=O)CCCCCC)cc2)OP(=O)(O)OC[C@H]2O[C@@H](n3cc(C)c(=O)[nH]c3=O)C[C@@H]2N=[N+]=[N-])cc1.N |  |  | 0.016 | 0.058 | > 10 |  |  |  |  | 47 | metabolite_detected |  |
| CCCCC(=O)Oc1ccc(COP(=O)(OCc2ccc(OC(=O)c3ccc(C)cc3)cc2)OP(=O)(O)OC[C@@H]2C=C[C@H](n3cc(C)c(=O)[nH]c3=O)O2)cc1.N (some centres undefined) | 0.96 | 50 | 0.3 | 1.45 | 10 |  |  |  |  | 14 |  |  |
| CCCCCCCC(=O)Oc1ccc(COP(=O)(OCc2ccc(OC(C)=O)cc2)OP(=O)(O)OC[C@H]2O[C@@H](n3cc(C)c(=O)[nH]c3=O)C[C@@H]2N=[N+]=[N-])cc1.N (some centres undefined) | 0.02 | 33 | 0.042 | 0.16 | > 10 |  | 12.6 |  |  | 29 |  |  |
| CCCCCCCCCC(=O)Oc1ccc(COP(=O)(O)OP(=O)(O)OC[C@H]2O[C@@H](n3cc(C)c(=O)[nH]c3=O)C[C@@H]2N=[N+]=[N-])cc1 | 0.833 |  |  |  |  |  |  |  |  |  |  |  |
| Cc1ccc(C(=O)Oc2ccc(COP(=O)(O)OP(=O)(O)OC[C@@H]3C=C[C@H](n4cc(C)c(=O)[nH]c4=O)O3)cc2)cc1 | 14.5 |  |  |  |  |  |  |  |  |  |  |  |
| CCCCC(=O)Oc1ccc(COP(=O)(OCc2ccc(OC(=O)CCCC)cc2)OP(=O)(O)OC[C@H]2O[C@@H](n3cc(C)c(=O)[nH]c3=O)C[C@@H]2N=[N+]=[N-])cc1.N |  |  | 0.011 | 0.054 | > 10 |  |  |  |  | 60 | metabolite_detected |  |

The next lines start with results.

| half-life [1] [h] | half-life [2] [h] | EC50 [3] [µM] | EC50 [4] [µM] | EC50 [5] [µM] | half-life [7] [h] | half-life [8] [s] | Drug metabolism [9] | t1/2 [10] [h] | SMILES | CC50 ([6]; CEM/0 cells) [µM] | Drug metabolism [11] | CC50 ([6]; ccrf-cem) [µM] |
| --- | --- | --- | --- | --- | --- | --- | --- | --- | --- | --- | --- | --- |
| 11.5 |  |  |  |  |  |  |  |  | Cc1cn([C@H]2C=C[C@@H](COP(=O)(O)OP(=O)(O)OCc3ccc(OC(=O)c4ccc(C(F)(F)F)cc4)cc3)O2)c(=O)[nH]c1=O |  |  |  |
| 1.15 |  |  |  |  |  |  |  |  | CCCCCCCCCCCC(=O)Oc1ccc(COP(=O)(O)OP(=O)(O)OC[C@@H]2C=C[C@H](n3cc(C)c(=O)[nH]c3=O)O2)cc1 |  |  |  |
| 0.04 | 35 | 0.016 | 0.14 | > 10 | 19 | 27 | metabolite_detected |  | CCCCCCCCCC(=O)Oc1ccc(COP(=O)(OCc2ccc(OC(C)=O)cc2)OP(=O)(O)OC[C@H]2O[C@@H](n3cc(C)c(=O)[nH]c3=O)C[C@@H]2N=[N+]=[N-])cc1.N (some centres undefined) | 20 |  |  |
| 1.65 |  |  |  |  |  |  |  |  | CCCCCCCC(=O)Oc1ccc(COP(=O)(O)OP(=O)(O)OC[C@@H]2C=C[C@H](n3cc(C)c(=O)[nH]c3=O)O2)cc1 |  |  |  |
|  |  | 0.026 | 0.23 | 1.3 |  |  |  |  | CCCCCCCCCC(=O)Oc1ccc(COP(=O)(OCc2ccc(OC(=O)CCCCCCCCC)cc2)OP(=O)(O)OC[C@H]2O[C@@H](n3cc(C)c(=O)[nH]c3=O)C[C@@H]2N=[N+]=[N-])cc1 | 38 |  |  |
| 3.83 |  |  |  |  |  |  |  |  | Cc1cn([C@H]2C[C@H](N=[N+]=[N-])[C@@H](COP(=O)(O)OP(=O)(O)OCc3ccc(OC(=O)c4ccc(C(F)(F)F)cc4)cc3)O2)c(=O)[nH]c1=O |  |  |  |
| 1.65 | 63 | 0.013 | 0.06 | 8.16 |  | 72 |  | 0.633 | CCCCCCCCCCCC(=O)Oc1ccc(COP(=O)(OCc2ccc(OC(=O)CCCC)cc2)OP(=O)(O)OC[C@H]2O[C@@H](n3cc(C)c(=O)[nH]c3=O)C[C@@H]2N=[N+]=[N-])cc1.N (some centres undefined) | 36 |  |  |
|  |  | 0.52 | 2.23 | 150 |  |  |  |  | Cc1cn([C@H]2C=C[C@@H](CO)O2)c(=O)[nH]c1=O [STAVUDINE] |  |  | 79 |
|  |  | 0.044 | 0.49 | > 250 |  |  |  |  | Cc1cn([C@H]2C[C@H](N=[N+]=[N-])[C@@H](CO)O2)c(=O)[nH]c1=O [ZIDOVUDINE] | > 250 |  |  |
| 1.91 | 52 | 0.1 | 0.28 | 0.13 |  |  |  |  | CCCCCCCCCCCC(=O)Oc1ccc(COP(=O)(OCc2ccc(OC(=O)CCCC)cc2)OP(=O)(O)OC[C@@H]2C=C[C@H](n3cc(C)c(=O)[nH]c3=O)O2)cc1.N (some centres undefined) | 30 |  |  |
| 1.65 |  |  |  |  |  |  |  |  | CCCCCCCC(=O)Oc1ccc(COP(=O)(O)OP(=O)(O)OC[C@H]2O[C@@H](n3cc(C)c(=O)[nH]c3=O)C[C@@H]2N=[N+]=[N-])cc1 |  |  |  |
| 0.833 |  |  |  |  |  |  |  |  | CCCCCCCCCC(=O)Oc1ccc(COP(=O)(O)OP(=O)(O)OC[C@@H]2C=C[C@H](n3cc(C)c(=O)[nH]c3=O)O2)cc1 |  |  |  |
| 1.05 |  |  |  |  |  |  |  |  | CCCCCCCCCCCC(=O)Oc1ccc(COP(=O)(O)OP(=O)(O)OC[C@H]2O[C@@H](n3cc(C)c(=O)[nH]c3=O)C[C@@H]2N=[N+]=[N-])cc1 |  |  |  |
| 1 | 50 | 0.034 | 0.29 | 10 | 77 | 16.2 |  | 0.317 | CCCCCCCCCC(=O)Oc1ccc(COP(=O)(OCc2ccc(OC(=O)CCCC)cc2)OP(=O)(O)OC[C@H]2O[C@@H](n3cc(C)c(=O)[nH]c3=O)C[C@@H]2N=[N+]=[N-])cc1.N (some centres undefined) | 41 |  |  |
| 0.88 | 15 | 0.4 | 0.72 | > 10 |  |  |  |  | CCCCC(=O)Oc1ccc(COP(=O)(OCc2ccc(OC(=O)c3ccc(C(F)(F)F)cc3)cc2)OP(=O)(O)OC[C@@H]2C=C[C@H](n3cc(C)c(=O)[nH]c3=O)O2)cc1.N (some centres undefined) | 37 |  |  |
| 0.71 | 36 | 0.33 | 1.47 | 6.31 |  |  |  |  | CCCCCCCC(=O)Oc1ccc(COP(=O)(OCc2ccc(OC(=O)CCCC)cc2)OP(=O)(O)OC[C@@H]2C=C[C@H](n3cc(C)c(=O)[nH]c3=O)O2)cc1.N (some centres undefined) | 66 |  |  |
| 0.16 | 48 | 0.29 | 0.28 | 1.77 |  |  |  |  | CCCCCCCCCCCC(=O)Oc1ccc(COP(=O)(OCc2ccc(OC(C)=O)cc2)OP(=O)(O)OC[C@@H]2C=C[C@H](n3cc(C)c(=O)[nH]c3=O)O2)cc1.N (some centres undefined) | 26 |  |  |
| 1.05 | 40 | 0.36 | 1.17 | 0.83 |  | 15.6 |  |  | CCCCCCCCCC(=O)Oc1ccc(COP(=O)(OCc2ccc(OC(=O)CCCC)cc2)OP(=O)(O)OC[C@@H]2C=C[C@H](n3cc(C)c(=O)[nH]c3=O)O2)cc1.N (some centres undefined) | 20 |  |  |
| 0.04 | 13 | 0.012 | 0.06 | > 10 |  |  |  |  | CC(=O)Oc1ccc(COP(=O)(OCc2ccc(OC(=O)c3ccc(C(F)(F)F)cc3)cc2)OP(=O)(O)OC[C@H]2O[C@@H](n3cc(C)c(=O)[nH]c3=O)C[C@@H]2N=[N+]=[N-])cc1.N (some centres undefined) | 100 |  |  |
